Reference: ChEMBL document CHEMBL1139614, “Synthesis and antibacterial activity of novel (un)substituted benzotriazolyl oxazolidinone derivatives” (2005)
Values after ≈ are worked out from the molar mass of the structure shown. Active and inactive are the calls of the source. No cut-off for these calls is given here.

Columns and labels:
Pseudomonas aeruginosa [1] = experiment: In vitro minimum inhibitory concentration against Pseudomonas aeruginosa (ATCC 27853); format: functional
[2] = tested on: Staphylococcus epidermidis; experiment: In vitro minimum inhibitory concentration against methicillin-resistant Staphylococcus epidermidis (ATCC 23760); format: functional
Escherichia coli [3] = experiment: In vitro minimum inhibitory concentration against Escherichia coli (ATCC 25922); format: functional
Enterococcus faecalis [4] = experiment: In vitro minimum inhibitory concentration against Enterococcus faecalis (ATCC 29212 and 21777); format: functional
Staphylococcus aureus [5] = experiment: In vitro minimum inhibitory concentration against methicillin-resistant Staphylococcus aureus (ST450, ATCC 15187, ICH 1 and 37); format: functional
Enterococcus faecalis [6] = experiment: In vitro minimum inhibitory concentration against Enterococcus faecalis [(VRE) ATCC 346-VRE and 5B-VRE]; format: functional
[7] = tested on: Staphylococcus epidermidis; experiment: In vitro minimum inhibitory concentration against Staphylococcus epidermidis (ATCC 12228); format: functional
Staphylococcus aureus [8] = experiment: In vitro minimum inhibitory concentration against Staphylococcus aureus (ATCC 25923 and 29213); Range 2-4 ug/mL; format: functional
[9] = tested on: Salmonella enterica subsp. enterica serovar Abony; experiment: In vitro minimum inhibitory concentration against Salmonella abony (NCTC 6017); format: functional
Enterococcus faecium [10] = experiment: In vitro minimum inhibitory concentration against Enterococcus faecium (6A-VRE); format: functional
Enterococcus faecalis [11] = experiment: In vitro minimum inhibitory concentration against Enterococcus faecalis (ATCC 29212 and 21777); NA= Not active in preliminary screening up to 50 ug/mL; format: functional, organism-based
[12] = tested on: Staphylococcus epidermidis; experiment: In vitro minimum inhibitory concentration against methicillin-resistant Staphylococcus epidermidis (ATCC 23760); NA= Not active in preliminary screening up to 50 ug/mL; format: functional, organism-based
Enterococcus faecalis [13] = experiment: In vitro minimum inhibitory concentration against Enterococcus faecalis [(VRE) ATCC 346-VRE and 5B-VRE]; NA= Not active in preliminary screening up to 50 ug/mL; format: functional, organism-based
Pseudomonas aeruginosa [14] = experiment: In vitro minimum inhibitory concentration against Pseudomonas aeruginosa (ATCC 27853); NA= Not active in preliminary screening up to 50 ug/mL; format: functional, organism-based
Staphylococcus aureus [15] = experiment: In vitro minimum inhibitory concentration against methicillin-resistant Staphylococcus aureus (ST450, ATCC 15187, ICH 1 and 37); NA= Not active in preliminary screening up to 50 ug/mL; format: functional, organism-based
[16] = tested on: Staphylococcus epidermidis; experiment: In vitro minimum inhibitory concentration against Staphylococcus epidermidis (ATCC 12228); NA= Not active in preliminary screening up to 50 ug/mL; format: functional, organism-based
Bacillus pumilus [17] = experiment: In vitro minimum inhibitory concentration against Bacillus pumilus (ATCC 14884); NA= Not active in preliminary screening up to 50 ug/mL; format: functional, organism-based
[18] = tested on: Salmonella enterica subsp. enterica serovar Abony; experiment: In vitro minimum inhibitory concentration against Salmonella abony (NCTC 6017); NA= Not active in preliminary screening up to 50 ug/mL; format: functional, organism-based
[19] = tested on: Staphylococcus saprophyticus; experiment: In vitro minimum inhibitory concentration against Staphylococcus saprophyticus (ATCC 15305); NA= Not active in preliminary screening up to 50 ug/mL; format: functional, organism-based
Staphylococcus aureus [20] = experiment: In vitro minimum inhibitory concentration against Staphylococcus aureus (ATCC 25923 and 29213); NA= Not active in preliminary screening up to 50 ug/mL; format: functional, organism-based
Enterococcus faecium [21] = experiment: In vitro minimum inhibitory concentration against Enterococcus faecium (6A-VRE); NA= Not active in preliminary screening up to 50 ug/mL; format: functional, organism-based
[22] = tested on: Staphylococcus epidermidis; experiment: In vitro minimum inhibitory concentration against Staphylococcus epidermidis (ATCC 12228); Range= 0.125-0.25 ug/mL; format: functional
Enterococcus faecalis [23] = experiment: In vitro minimum inhibitory concentration against Enterococcus faecalis [(VRE) ATCC 346-VRE and 5B-VRE]; Range= 0.125-0.25 ug/mL; format: functional
[24] = tested on: Staphylococcus saprophyticus; experiment: In vitro minimum inhibitory concentration against Staphylococcus saprophyticus (ATCC 15305); format: functional
Staphylococcus aureus [25] = experiment: In vitro minimum inhibitory concentration against Staphylococcus aureus (ATCC 25923 and 29213); format: functional
Staphylococcus aureus [26] = experiment: In vitro minimum inhibitory concentration against methicillin-resistant Staphylococcus aureus (ST450, ATCC 15187, ICH 1 and 37); Range= 0.125-0.25 ug/mL; format: functional
Bacillus pumilus [27] = experiment: In vitro minimum inhibitory concentration against Bacillus pumilus (ATCC 14884); format: functional
Escherichia coli [28] = experiment: In vitro minimum inhibitory concentration against Escherichia coli (ATCC 25922); NA= Not active in preliminary screening up to 50 ug/mL; format: functional, organism-based

SMILES	MIC (Pseudomonas aeruginosa [1])	MIC [2]	MIC (Escherichia coli [3])	MIC (Enterococcus faecalis [4])	MIC (Staphylococcus aureus [5])	MIC (Enterococcus faecalis [6])	MIC [7]	MIC [9]	MIC (Enterococcus faecium [10])	MIC (Enterococcus faecalis [11])	MIC [12]	MIC (Enterococcus faecalis [13])	MIC (Pseudomonas aeruginosa [14])	MIC (Staphylococcus aureus [15])	MIC [16]	MIC (Bacillus pumilus [17])	MIC [18]	MIC [19]	MIC (Staphylococcus aureus [20])	MIC (Staphylococcus aureus [25])	also measured
O=C1O[C@@H](CN/C(S)=N/CCO)CN1c1ccc(-n2nnc3ccccc32)c(F)c1	> 16 µg/mL	0.5 µg/mL (≈ 1.16 µM)	> 16 µg/mL	1 µg/mL (≈ 2.32 µM)	2 µg/mL (≈ 4.65 µM)	1 µg/mL (≈ 2.32 µM)	2 µg/mL (≈ 4.65 µM)	> 16 µg/mL	1 µg/mL (≈ 2.32 µM)	–	–	–	–	–	–	–	–	–	–	–	MIC (Staphylococcus aureus [8]): 4 µg/mL (≈ 9.29 µM)
O=C1O[C@@H](C/N=C(\S)OCC(F)(F)C(F)F)CN1c1ccc(-n2nnc3ccccc32)c(F)c1	–	–	inactive	–	–	–	–	–	–	inactive	inactive	inactive	inactive	inactive	inactive	inactive	inactive	inactive	inactive	–	MIC (Enterococcus faecium [21]): inactive
COC(=O)c1ccc2c(c1)nnn2-c1ccc(N2C[C@H](C/N=C(/N)S)OC2=O)cc1F	> 16 µg/mL	0.125 µg/mL (≈ 0.281 µM)	> 16 µg/mL	0.125 µg/mL (≈ 0.281 µM)	–	–	–	–	0.25 µg/mL (≈ 0.562 µM)	–	–	–	–	–	–	–	–	–	–	0.25 µg/mL (≈ 0.562 µM)	MIC [22]: 0.25 µg/mL (≈ 0.562 µM); MIC (Enterococcus faecalis [23]): 0.25 µg/mL (≈ 0.562 µM); MIC [24]: 0.25 µg/mL (≈ 0.562 µM); MIC (Staphylococcus aureus [26]): 0.25 µg/mL (≈ 0.562 µM)
CO/C(S)=N/C[C@H]1CN(c2ccc(-n3nnc4ccccc43)c(F)c2)C(=O)O1	> 16 µg/mL	0.25 µg/mL (≈ 0.623 µM)	> 16 µg/mL	1 µg/mL (≈ 2.49 µM)	1 µg/mL (≈ 2.49 µM)	1 µg/mL (≈ 2.49 µM)	0.25 µg/mL (≈ 0.623 µM)	> 16 µg/mL	1 µg/mL (≈ 2.49 µM)	–	–	–	–	–	–	–	–	–	–	1 µg/mL (≈ 2.49 µM)	MIC (Bacillus pumilus [27]): > 16 µg/mL
N=C(S)NC[C@H]1CN(c2ccc(-n3nnc4ccccc43)c(F)c2)C(=O)O1	> 16 µg/mL	0.125 µg/mL (≈ 0.323 µM)	> 16 µg/mL	0.25 µg/mL (≈ 0.647 µM)	0.25 µg/mL (≈ 0.647 µM)	0.25 µg/mL (≈ 0.647 µM)	0.25 µg/mL (≈ 0.647 µM)	> 16 µg/mL	16 µg/mL (≈ 41.4 µM)	–	–	–	–	–	–	–	–	–	–	0.25 µg/mL (≈ 0.647 µM)	MIC (Bacillus pumilus [27]): 0.25 µg/mL (≈ 0.647 µM)
O=C1O[C@@H](CN/C(S)=N/CCCO)CN1c1ccc(-n2nnc3ccccc32)c(F)c1	–	–	–	–	–	–	–	–	–	inactive	inactive	inactive	inactive	inactive	inactive	inactive	inactive	inactive	inactive	–	MIC (Escherichia coli [28]): inactive; MIC (Enterococcus faecium [21]): inactive
